Source: patent publication US8258159B2, “Inhibitors of the α2β1/GPIa-IIa integrin” (The Trustees Of The University Of Pennsylvania, priority 2005, dated 2012)
*1 amine or outer side, *2 acyl side, *3 side chain or, on linkers, in order; H or OH if unused. Where a SMILES comes first, the peptide text is derived from it. Side-chain parts run from the residue outwards. [ ]: non-standard residue; d: D form. The star is where a group is joined. Cbz = O=C(OCc1ccccc1)*; Dap = NC[C@H](N)C(=O)O; CO = O=C([*:1])[*:2]; NHBn = c1ccc(CN*)cc1; Bz = O=C(c1ccccc1)*

Biological target: T1, α2β1 integrin (Homo sapiens, UniProt P05556+P17301)
T1 construct: endogenous in cells; host or cells: gel-filtered human platelets of a single donor
T1 sequence (P17301 30-1181): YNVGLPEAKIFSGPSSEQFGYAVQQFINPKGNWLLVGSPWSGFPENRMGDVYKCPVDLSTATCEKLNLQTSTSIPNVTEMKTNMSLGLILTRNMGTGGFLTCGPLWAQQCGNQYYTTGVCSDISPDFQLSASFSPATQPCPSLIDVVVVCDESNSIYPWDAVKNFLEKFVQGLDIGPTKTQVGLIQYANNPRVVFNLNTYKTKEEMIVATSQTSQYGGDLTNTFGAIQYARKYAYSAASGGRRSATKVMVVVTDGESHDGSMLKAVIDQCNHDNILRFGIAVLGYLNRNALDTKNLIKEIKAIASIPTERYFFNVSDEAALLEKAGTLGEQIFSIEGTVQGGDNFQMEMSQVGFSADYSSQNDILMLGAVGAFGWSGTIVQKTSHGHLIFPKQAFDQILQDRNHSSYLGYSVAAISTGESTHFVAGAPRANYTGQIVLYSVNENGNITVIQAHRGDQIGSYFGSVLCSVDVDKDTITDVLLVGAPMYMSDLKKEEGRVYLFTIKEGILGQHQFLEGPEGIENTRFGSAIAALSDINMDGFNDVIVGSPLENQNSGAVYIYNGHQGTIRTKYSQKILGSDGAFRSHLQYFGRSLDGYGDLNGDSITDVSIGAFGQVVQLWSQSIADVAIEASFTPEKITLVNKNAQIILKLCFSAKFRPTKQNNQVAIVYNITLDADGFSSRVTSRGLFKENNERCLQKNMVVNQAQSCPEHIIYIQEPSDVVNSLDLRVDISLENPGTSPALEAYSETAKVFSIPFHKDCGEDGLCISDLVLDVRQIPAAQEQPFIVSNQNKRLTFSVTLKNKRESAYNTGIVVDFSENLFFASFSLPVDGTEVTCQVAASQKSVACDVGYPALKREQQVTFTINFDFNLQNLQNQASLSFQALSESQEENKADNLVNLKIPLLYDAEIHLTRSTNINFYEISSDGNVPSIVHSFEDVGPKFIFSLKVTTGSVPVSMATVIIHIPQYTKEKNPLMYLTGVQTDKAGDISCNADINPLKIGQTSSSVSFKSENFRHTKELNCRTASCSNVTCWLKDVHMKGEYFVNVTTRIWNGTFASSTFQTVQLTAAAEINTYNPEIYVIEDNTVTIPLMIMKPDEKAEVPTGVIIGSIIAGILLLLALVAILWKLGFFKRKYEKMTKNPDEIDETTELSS
T1 sequence (P05556 21-798): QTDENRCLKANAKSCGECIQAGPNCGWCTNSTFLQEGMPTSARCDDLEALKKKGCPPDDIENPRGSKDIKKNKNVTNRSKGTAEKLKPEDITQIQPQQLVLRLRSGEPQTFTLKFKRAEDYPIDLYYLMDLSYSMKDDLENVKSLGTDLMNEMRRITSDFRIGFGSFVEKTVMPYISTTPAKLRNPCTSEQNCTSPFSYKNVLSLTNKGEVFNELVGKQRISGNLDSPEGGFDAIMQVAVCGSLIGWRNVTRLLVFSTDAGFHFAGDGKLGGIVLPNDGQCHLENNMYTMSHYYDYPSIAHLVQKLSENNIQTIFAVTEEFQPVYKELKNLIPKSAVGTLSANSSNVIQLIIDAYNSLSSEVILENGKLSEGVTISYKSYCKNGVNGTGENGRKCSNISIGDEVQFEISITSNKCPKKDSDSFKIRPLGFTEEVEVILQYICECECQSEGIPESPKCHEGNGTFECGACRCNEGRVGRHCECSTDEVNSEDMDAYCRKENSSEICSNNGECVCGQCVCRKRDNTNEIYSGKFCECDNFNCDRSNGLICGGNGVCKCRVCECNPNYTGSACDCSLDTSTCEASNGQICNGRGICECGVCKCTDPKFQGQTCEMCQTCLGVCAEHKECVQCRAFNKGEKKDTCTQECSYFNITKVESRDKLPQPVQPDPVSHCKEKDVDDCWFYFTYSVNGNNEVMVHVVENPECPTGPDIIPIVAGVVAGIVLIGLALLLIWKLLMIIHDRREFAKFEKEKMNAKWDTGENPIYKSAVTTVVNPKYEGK
Assay: Platelet adhesion assay (human platelet adhesion to type I collagen)
Format: cell-based
Conditions: human platelet adhesion to type I (soluble, monomeric) collagen, static conditions; single donor; read-out: IC50
Experimental: The inhibitory strength of the compounds of the present disclosure was analyzed as against platelet adhesion to type I collagen. Ninety-six well flat bottom microtiter plates (Immulon 2, Dynatech Laboratories, Chantilly, Va.) were coated with collagen, purified human fibrinogen, or bovine serum albumin, each dissolved in 50 mM NaHCO3 buffer, pH 8.0, containing 150 mM NaCl as previously described. See Bennett J S, Chan C, Vilaire G, Mousa S A, DeGrado W F. Agonist-Activated αvβ3 on Platelets and Lymphocytes Binds to the Matrix Protein Osteopontin. J Biol Chem. 272, 8137-814) (1997). Unoccupied protein binding sites on the wells were blocked with 5 mg/ml bovine serum albumin dissolved in the same buffer. Human platelets were isolated from blood anticoagulated with 0.1 volume 3.8% sodium citrate by gel-filtration using a 4 mM HEPES buffer, pH 7.4, containing 135 mM NaCl, 2.7 mM KCl, 5.6 mM glucose, 3.3 mM NaH2PO4, 0.35 mg/ml bovine serum albumin and various concentrations of CaCl2 or MgCl2 according to the experiment. One hundred μl aliquots of the gel-filtered platelet suspension containing 1-2×10^8 platelets were added to the protein-coated wells in the absence or presence of a platelet agonist. Following an incubation for 30 min at 37° C. without agitation, the plates were washed 4 times with the Tris-buffered NaCl, containing 2 mM MgCl2, pH 7.4, and the number of adherent platelets measured using the colorimetric assay reported by Bellavite P, Andrioli G, Guzzo P, et al. A colorimetric method for the measurement of platelet adhesion in microtiter plates. Anal Biochem. 216, 444-450 (1994). Briefly, 150 μl of a 0.1 M citrate buffer, pH 5.4, containing 5 mM p-nitrophenyl phosphate and 0.1% Triton X-100 was added to the wells after washing. After an incubation for 60 min at room temperature in the absence of ambient light, color was developed by the addition of 100 μl of 2N NaOH and, using EL800 Universal Microplate Reader (Bio-Tek Instruments, Inc., Winooski, Vt.), read in microtiter plate reader at 405 nm.
The potencies of the compounds of the present disclosure were determined by testing the ability of a range of concentrations of each compound to inhibit human platelet adhesion to soluble collagen under static conditions. Owing to the fact that soluble collagen is a specific ligand for α2β1 integrin, this is an accepted method of assessing α2β1 inhibition on platelets.
IC50 values were determined by using the platelets of a single donor. In cases where multiple assays were performed, the reported results reflect the average IC50 value derived from the separate assays.

Which IC50 does the source give for `O=C(NCc1ccccc1)NC[C@H](NC(=O)[C@@H]1C=CCN1S(=O)(=O)c1ccccc1)C(=O)O` (stereo in doubt) [Compound 52, 2-[(1-Benzenesulfonyl-2,5-dihydro-1H-pyrrole-2-carbonyl)-amino]-3-(3-benzyl-ureido)-propionic acid] here?
The IC50 was 0.143 µM.

For `CC(C)(C)OC(=O)NC[C@H](NC(=O)[C@@H]1CCCN1S(=O)(=O)c1ccc([N+](=O)[O-])cc1)C(=O)O` [Compound 1, 3-tert-Butoxycarbonylamino-2-{[1-(4-nitro-benzenesulfonyl)-pyrrolidine-2-carbonyl]-amino}-propionic acid], which IC50 is on record?
The IC50 was 2.62 µM.

`O=C(NC[C@H](NC(=O)[C@@H]1CCCN1S(=O)(=O)c1ccc([N+](=O)[O-])cc1)C(=O)O)OCc1ccccc1` [Compound 2, 3-Benzyloxycarbonylamino-2-{[1-(4-nitro-benzenesulfonyl)-pyrrolidine-2-carbonyl]-amino}-propionic acid] was tested. Which IC50 did it give?
Its IC50 is 2.3 µM.

`O=C(NC[C@H](NC(=O)[C@@H]1CCCN1S(=O)(=O)c1ccc([N+](=O)[O-])cc1)C(=O)O)c1ccccc1` [Compound 3, 3-Benzoylamino-2-{[1-(4-nitro-benzenesulfonyl)-pyrrolidine-2-carbony]-amino}-propionic acid] was tested. Which IC50 did it give?
The IC50 was 2.31 µM.

With `O=C(CCc1ccccc1)NC[C@H](NC(=O)[C@@H]1CCCN1S(=O)(=O)c1ccc([N+](=O)[O-])cc1)C(=O)O` [Compound 4, 2-{[1-(4-Nitro-benzenesulfonyl)-pyrrolidine-2-carbonyl]-amino}-3-(3-phenyl-propionylamino)-propionic acid] as the compound, how does the IC50 read?
Its IC50 is 4.75 µM.

With `O=C(NCc1ccccc1)NC[C@H](NC(=O)[C@@H]1CCCN1S(=O)(=O)c1ccc([N+](=O)[O-])cc1)C(=O)O` [Compound 5, 3-(3-Benzyl-ureido)-2-{[1-(4-nitro-benzenesulfonyl)-pyrrolidine-2-carbonyl]-amino}-propionic acid] as the compound, how does the IC50 read?
Its IC50 is 0.105 µM.

How did the IC50 turn out when `CC(C)(C)OC(=O)CC[C@H](NC(=O)[C@@H]1CCCN1S(=O)(=O)c1ccc([N+](=O)[O-])cc1)C(=O)O` [Compound 6, 2-{[1-(4-Nitro-benzenesulfonyl)-pyrrolidine-2-carbonyl]-amino}-pentanedioic acid 5-tert-butyl ester] was run?
Its IC50 is 22.3 µM.

Which IC50 does the source give for `O=C(NCc1ccccc1Cl)NC[C@H](NC(=O)[C@@H]1CCCN1S(=O)(=O)c1ccc([N+](=O)[O-])cc1)C(=O)O` [Compound 7, 3-[3-(2-Chloro-benzyl)-ureido]-2-{[1-(4-nitro-benzenesulfonyl)-pyrrolidine-2-carbonyl]-amino}-propionic acid] here?
The IC50 was 0.985 µM.

`O=C(NCc1ccc(Br)cc1)NC[C@H](NC(=O)[C@@H]1CCCN1S(=O)(=O)c1ccc([N+](=O)[O-])cc1)C(=O)O` [Compound 8, 3-[3-(4-Bromo-benzyl)-ureido]-2-{[1-(4-nitro-benzenesulfonyl)-pyrrolidine-2-carbonyl]-amino}-propionic acid] was tested. Which IC50 did it give?
Its IC50 is 1.62 µM.

For `O=C(NC[C@H](NC(=O)[C@@H]1CCCN1S(=O)(=O)c1ccc([N+](=O)[O-])cc1)C(=O)O)Nc1ccccc1` [Compound 9, 2-{[1-(4-Nitro-benzenesulfonyl)-pyrrolidine-2-carbonyl]-amino}-3-(3-phenyl-ureido)-propionic acid], which IC50 is on record?
Its IC50 is 3 µM.

How did the IC50 turn out when `O=C(NC[C@H](NC(=O)[C@@H]1CCCN1S(=O)(=O)c1ccc([N+](=O)[O-])cc1)C(=O)O)Nc1ccc([N+](=O)[O-])cc1` [Compound 10, 2-{[1-(4-Nitro-benzenesulfonyl)-pyrrolidine-2-carbonyl]-amino}-3-[3-(4-nitro-phenyl)-ureido]-propionic acid] was run?
The IC50 was 4.6 µM.

With `O=C(NC[C@H](NC(=O)[C@@H]1CCCN1S(=O)(=O)c1ccc([N+](=O)[O-])cc1)C(=O)O)Nc1ccc(-c2ccccc2)cc1` [Compound 11, 3-(3-Biphenyl-4-yl-ureido)-2-{[1-(4-nitro-benzenesulfonyl)-pyrrolidine-2-carbonyl]-amino}-propionic acid] as the compound, how does the IC50 read?
The IC50 was 5.06 µM.

`COc1ccc(CNC(=O)NC[C@H](NC(=O)[C@@H]2CCCN2S(=O)(=O)c2ccc([N+](=O)[O-])cc2)C(=O)O)cc1` [Compound 12, 3-[3-(4-Methoxy-benzyl)-ureido]-2-{[1-(4-nitro-benzenesulfonyl)-pyrrolidine-2-carbonyl]-amino}-propionic acid] was tested. Which IC50 did it give?
The IC50 was 0.81 µM.

How did the IC50 turn out when `COc1ccccc1CNC(=O)NC[C@H](NC(=O)[C@@H]1CCCN1S(=O)(=O)c1ccc([N+](=O)[O-])cc1)C(=O)O` [Compound 13, 3-[3-(2-Methoxy-benzyl)-ureido]-2-{[1-(4-nitro-benzenesulfonyl)-pyrrolidine-2-carbonyl]-amino}-propionic acid] was run?
The IC50 was 1.5 µM.

With `COc1cccc(CNC(=O)NC[C@H](NC(=O)[C@@H]2CCCN2S(=O)(=O)c2ccc([N+](=O)[O-])cc2)C(=O)O)c1` [Compound 14, 3-[3-(3-Methoxy-benzyl)-ureido]-2-{[1-(4-nitro-benzenesulfonyl)-pyrrolidine-2-carbonyl]-amino}-propionic acid] as the compound, how does the IC50 read?
Its IC50 is 0.79 µM.

Which IC50 does the source give for `O=C(NCc1ccc(-c2ccccc2)cc1)NC[C@H](NC(=O)[C@@H]1CCCN1S(=O)(=O)c1ccc([N+](=O)[O-])cc1)C(=O)O` [Compound 15, 3-(3-Biphenyl-4-ylmethyl-ureido)-2-{[1-(4-nitro-benzenesulfonyl)-pyrrolidine-2-carbonyl]-amino}-propionic acid] here?
Its IC50 is 4.1 µM.

`CCCNC(=O)NC[C@H](NC(=O)[C@@H]1CCCN1S(=O)(=O)c1ccc([N+](=O)[O-])cc1)C(=O)O` [Compound 16, 2-{[1-(4-Nitro-benzenesulfonyl)-pyrrolidine-2-carbonyl]-amino}-3-(3-propyl-ureido)-propionic acid] was tested. Which IC50 did it give?
The IC50 was 3.6 µM.

How did the IC50 turn out when `CC(C)(C)NC(=O)NC[C@H](NC(=O)[C@@H]1CCCN1S(=O)(=O)c1ccc([N+](=O)[O-])cc1)C(=O)O` [Compound 17, 3-(3-tert-Butyl-ureido)-2-{[1-(4-nitro-benzenesulfonyl)-pyrrolidine-2-carbonyl]-amino}-propionic acid] was run?
The IC50 was 1.7 µM.

How did the IC50 turn out when `CC(C)(C)OC(=O)Nc1ccc(CNC(=O)NC[C@H](NC(=O)[C@@H]2CCCN2S(=O)(=O)c2ccc([N+](=O)[O-])cc2)C(=O)O)cc1` [Compound 18, 3-[3-(4-tert-Butoxycarbonylamino-benzyl)-ureido]-2-{[1-(4-nitro-benzenesulfonyl)-pyrrolidine-2-carbonyl]-amino}-propionic acid] was run?
Its IC50 is 1.77 µM.

For `Nc1ccc(CNC(=O)NC[C@H](NC(=O)[C@@H]2CCCN2S(=O)(=O)c2ccc([N+](=O)[O-])cc2)C(=O)O)cc1` [Compound 19, 3-[3-(4-Amino-benzyl)-ureido]-2-{[1-(4-nitro-benzenesulfonyl)-pyrrolidine-2-carbonyl]-amino}-propionic acid], which IC50 is on record?
Its IC50 is 0.46 µM.

For `CC(=O)Nc1ccc(S(=O)(=O)N2CCC[C@H]2C(=O)N[C@@H](CNC(=O)NCc2ccccc2)C(=O)O)cc1` [Compound 21, 2-{[1-(4-Acetylamino-benzenesulfonyl)-pyrrolidine-2-carbonyl]-amino}-3-(3-benzyl-ureido)-propionic acid], which IC50 is on record?
The IC50 was 0.131 µM.

With `O=C(NCc1ccccc1)NC[C@H](NC(=O)[C@@H]1CCCN1S(=O)(=O)Cc1ccccc1)C(=O)O` [Compound 22, 3-(3-Benzyl-ureido)-2-[(1-phenylmethanesulfonyl-pyrrolidine-2-carbonyl)-amino]-propionic acid] as the compound, how does the IC50 read?
Its IC50 is 11.7 µM.

With `O=C(NCc1ccccc1)NC[C@H](NC(=O)[C@@H]1CCCN1C(=O)OCc1ccccc1)C(=O)O` [Compound 23, 2-[2-(3-Benzyl-ureido)-1-carboxy-ethylcarbarmoyl]-pyrrolidine-1-carboxylic acid benzyl ester] (Cbz-Pro-[Dap]([CO-NHBn])-OH) as the compound, how does the IC50 read?
The IC50 was 28 µM.

How did the IC50 turn out when `O=C(NCc1ccccc1)NC[C@H](NC(=O)[C@@H]1CCCN1S(=O)(=O)c1ccc(-c2ccccc2)cc1)C(=O)O` [Compound 24, 3-(3-Benzyl-ureido)-2-{[1-(biphenyl-4-sulfonyl)-pyrrolidine-2-carbonyl]-amino}-propionic acid] was run?
Its IC50 is 0.287 µM.

Which IC50 does the source give for `Nc1ccc(S(=O)(=O)N2CCC[C@H]2C(=O)N[C@H](CNC(=O)NCc2ccccc2)C(=O)O)cc1` [Compound 25, 2-{[1-(4-Amino-benzenesulfonyl)-pyrrolidine-2-carbonyl]-amino}-3-(3-benzyl-ureido)-propionic acid] here?
The IC50 was 2.03 µM.

For `O=C(NCc1ccccc1)NC[C@H](NC(=O)[C@@H]1CCCN1C(=O)c1ccccc1)C(=O)O` [Compound 26, 2-[(1-Benzoyl-pyrrolidine-2-carbonyl)-amino]-3-(3-benzyl-ureido)-propionic acid] (Bz-Pro-[Dap]([CO-NHBn])-OH), which IC50 is on record?
The IC50 was 1000 µM.
